The record followed here is patent US6716588B2, “System for cell-based screening” (Cellomics, Inc., priority 1999, dated 2004).

One test relates to PC-3 cells. Nature of the test: Cell spreading assay, PC-3 cells. It is filed as cell-based, human. As to conditions: for ability of cells to spread (percentage of cells with Cyto minus NucArea above threshold): PC-3 on type I collagen, 3 hours. As to the method: (§1) Compounds that interfere with metastasis of prostate carcinoma cells were screened as follows. PC3 human prostate carcinoma cells (ATCC # CRL 1435) were cultured in media with appropriate stimulants and passaged to collagen coated 96 well plates. Similar experiments were also conducted with MDA-MB231, a breast carcinoma cell line (ATCC # HTB-26), A549 human lung carcinoma cell line (ATCC # CCL 185), and primary HMVEC-d human skin microvessel endothelial cells (Clonetics Walkersville, Md.
(§2) Conditions in which cell spreading could be augmented or diminished were tested in various ways, including plating the cells on collagen coated (various concentrations) or collagen free substrates, varying the time of cell spreading prior to analysis, and plating cells in the presence of chemical modulators. After two hours, cells were fixed and stained with ALEXA™ 488 phalloidin (Molecular Probes) and Hoechst 33342 as per the protocol for cellular hypertrophy. The size of cells under these various conditions, as measured by cytoplasmic staining, was distinguished from background levels. The number of cells per field was determined by measuring the number of nuclei stained with the Hoechst DNA dye. The area per cell was found by dividing the cytoplasmic area (phalloidin image) by the cell number (Hoechst image).

Test [1] relates to A549 cells. Briefly: Cell spreading assay, A549 cells. It is filed as cell-based, human. As to conditions: for inhibition of cell spreading: 10 μM; for stimulation of spreading by matrix protein / completeness of cell spreading on matrix protein: A549 cells plated on matrix protein. How it is done:
as §1, §2
(§3) To illustrate how cell spreading is a unique functional event that can be distinguished from attachment and motility by drug effects, we performed the following experiments. A549 cancer cells were allowed to spread on a collagen I coated substrate for 3 hours, and then were fixed and stained with rhodamine phalloidin. The number of cells that spread beyond a selectable threshold area was measured as a function of increasing concentrations of cytochalasin D. While cells normally spread to a size much larger than the nucleus in this time interval, cytochalasin D maintained cells in a tight rounded morphology not much larger than the nucleus. The movement of A549 cells was measured at 18 hours after plating. At a concentration of 0.5 μM, cytochalasin D prevented spreading of 80% of cells but permitted movement of 70% of cells. Cytochalasin had no effect on adhesion to the substrate as measured by the number of cells that remain attached after a 3 hour incubation.
(§4) The spreading of cells is a function of the ligands and cell receptors that are employed, and plating cells on different immobilized ligands will selectively bind to matched cell surface receptors. A549 cells were plated on various matrix proteins and allowed to spread for 3 and for 5 hours. […] Thus ligand-dependent differences in the kinetics of cell spreading can be measured. In addition, strong differences in the activation of spreading were seen on different matrices. […] In contrast to spreading, cell motility presented a very different biological profile of these matrix proteins. […] In further experiments, cells were allowed to spread in the presence of various kinase inhibitors and the effect on cell spreading was determined.

Test [2] concerns A549 cells. Nature of the test: Cell movement (motility) of A549 cells. As to conditions: for inhibition of cell movement (motility): 10 μM; for stimulation of movement by matrix protein: A549 cells plated on matrix protein. It is filed as cell-based, human. How it is done: as §3, §4
A further test concerns SNB-19 cells. Nature of the test: High-content screen of drug-induced apoptosis, SNB-19 cells. The class given is cell-based. How it is done:
Cell preparation. The cells chosen for this study were mouse connective tissue fibroblasts (L-929; ATCC CCL-1) and a highly invasive glioblastoma cell line (SNB-19; ATCC CRL-2219) (Welch et al., In Vitro Cell. Dev. Biol. 31:610, 1995). The day before treatment with an apoptosis inducing drug, 3500 cells were placed into each well of a 96-well plate and incubated overnight at 37° C. in a humidified 5% CO2 atmosphere. The following day, the culture medium was removed from each well and replaced with fresh medium containing various concentrations of paclitaxel (0-50 μM) from a 20 mM stock made in DMSO. The maximal concentration of DMSO used in these experiments was 0.25%. The cells were then incubated for 26 h as above. At the end of the paclitaxel treatment period, each well received fresh medium containing 750 nM MitoTracker Red (Molecular Probes; Eugene, Oreg.) and 3 μg/ml Hoechst 33342 DNA-binding dye (Molecular Probes) and was incubated as above for 20 min. […] The fluorescence signals from plates stored this way were stable for at least two weeks after preparation. As in the nuclear translocation assay, fluorescence reagents can be designed to convert this assay into a live cell high-content screen.
Image acquisition and analysis on the ArrayScan System. The fluorescence intensity of intracellular MitoTracker Red, Hoechst 33342, and Bodipy FL phallacidin was measured with the cell screening system as described supra. […]
Calculations and output. A total of 50-250 cells were measured per image field. For each field of cells, the following calculations were performed: (1) The average nuclear area (μm^2) was calculated by dividing the total nuclear area in a field by the number of nuclei detected. (2) The average nuclear perimeter (μm) was calculated by dividing the sum of the perimeters of all nuclei in a field by the number of nuclei detected in that field. […] (3) The average nuclear brightness was calculated by dividing the integrated intensity of the entire field of nuclei by the number of nuclei in that field. […]

In the next test the test system is L-929 cells. Nature of the test: High-content screen of drug-induced apoptosis, L-929 cells. The class given is cell-based, mouse. As to the method:
Cell preparation. The cells chosen for this study were mouse connective tissue fibroblasts (L-929; ATCC CCL-1) and a highly invasive glioblastoma cell line (SNB-19; ATCC CRL-2219) (Welch et al., In Vitro Cell. Dev. Biol. 31:610, 1995). The day before treatment with an apoptosis inducing drug, 3500 cells were placed into each well of a 96-well plate and incubated overnight at 37° C. in a humidified 5% CO2 atmosphere. The following day, the culture medium was removed from each well and replaced with fresh medium containing various concentrations of paclitaxel (0-50 μM) from a 20 mM stock made in DMSO. The maximal concentration of DMSO used in these experiments was 0.25%. The cells were then incubated for 26 h as above. At the end of the paclitaxel treatment period, each well received fresh medium containing 750 nM MitoTracker Red (Molecular Probes; Eugene, Oreg.) and 3 μg/ml Hoechst 33342 DNA-binding dye (Molecular Probes) and was incubated as above for 20 min. Each well on the plate was then washed with HBSS and fixed with 3.7% formaldehyde in HBSS for 15 min at room temperature. The formaldehyde was washed out with HBSS and the cells were permeabilized for 90 s with 0.5% (v/v) Triton X-100, washed with HBSS, incubated with 2 U ml^−1 Bodipy FL phallacidin (Molecular Probes) for 30 min, and washed with HBSS. The wells on the plate were then filled with 200 μl HBSS, sealed, and the plate stored at 4° C. if necessary. The fluorescence signals from plates stored this way were stable for at least two weeks after preparation. As in the nuclear translocation assay, fluorescence reagents can be designed to convert this assay into a live cell high-content screen.
Image acquisition and analysis on the ArrayScan System. The fluorescence intensity of intracellular MitoTracker Red, Hoechst 33342, and Bodipy FL phallacidin was measured with the cell screening system as described supra. Morphometric data from each pair of images obtained from each well was also obtained to detect each object in the image field (e.g., cells and nuclei), and to calculate its size, shape, and integrated intensity.
Calculations and output. A total of 50-250 cells were measured per image field. For each field of cells, the following calculations were performed: (1) The average nuclear area (μm^2) was calculated by dividing the total nuclear area in a field by the number of nuclei detected. (2) The average nuclear perimeter (μm) was calculated by dividing the sum of the perimeters of all nuclei in a field by the number of nuclei detected in that field. Highly convoluted apoptotic nuclei had the largest nuclear perimeter values. (3) The average nuclear brightness was calculated by dividing the integrated intensity of the entire field of nuclei by the number of nuclei in that field. An increase in nuclear brightness was correlated with increased DNA content. (4) The average cellular brightness was calculated by dividing the integrated intensity of an entire field of cells stained with MitoTracker dye by the number of nuclei in that field. Because the amount of MitoTracker dye that accumulates within the mitochondria is proportional to the mitochondrial potential, an increase in the average cell brightness is consistent with an increase in mitochondrial potential. (5) The average cellular brightness was also calculated by dividing the integrated intensity of an entire field of cells stained with Bodipy FL phallacidin dye by the number of nuclei in that field. […]

In test [3] the test system is NF-KB transcription factor. Nature of the test: Cytoplasm to nucleus translocation screen of NF-KB (NucCyt Difference). It is filed as cell-based, human. As to conditions: titrated in the presence of IL-1α. How it is done: The distribution of the transcription factor is determined by labeling the nuclei with a DNA specific fluorophore like […] and the transcription factor with a specific fluorescent antibody. After autofocusing on the Hoechst labeled nuclei, an image of the nuclei is acquired in the cell-based screening system and used to create a mask by one of several optional thresholding methods, as described supra. The morphological descriptors of the regions defined by the mask are compared with the user defined parameters and valid nuclear masks are identified and used with the following method to extract transcription factor distributions. Each valid nuclear mask is eroded to define a slightly smaller nuclear region. The original nuclear mask is then dilated in two steps to define a ring shaped region around the nucleus, which represents a cytoplasmic region. The average antibody fluorescence in each of these two regions is determined, and the difference between these averages is defined as the NucCyt Difference. […] Using these two sampling regions, data on nuclear translocation can be automatically analyzed by the cell-based screening system on a cell by cell basis. […]

Turning to `C[S+](C)[O-]` [DMSO], the “ability of cells to spread (percentage of cells with Cyto minus NucArea above threshold)” value was “significantly reduced” in the test on PC-3 cells (DMSO 2.5%), “significantly reduced” in the test on PC-3 cells (DMSO 5%) and “no effect” in the test on PC-3 cells (DMSO at or below 1%).
As for `O=C(O)CN(CCN(CC(=O)O)CC(=O)O)CC(=O)O` [EDTA], in the test with PC-3 cells (PC-3 cells, 50 mM), the cell adherence entry was “inhibited cell adherence” and the cell spreading result is “inhibited cell spreading”.
Regarding `CN([C@@H](Cc1ccc(OS(=O)(=O)c2cccc3cnccc23)cc1)C(=O)N1CCN(c2ccccc2)CC1)S(=O)(=O)c1cccc2cnccc12` [KN-62], in the test on A549 cells [1], the “inhibition of cell spreading” value is listed as “ineffective”. In addition, the “inhibition of cell movement (motility)” value in the test on A549 cells [2] is “ineffective”.
Turning to `C=C1[C@@H](C)[C@H]2[C@H](Cc3ccccc3)NC(=O)[C@]23[C@H](OC(C)=O)/C=C/[C@@](C)(O)C(=O)[C@@H](C)C/C=C/[C@H]3[C@@H]1O` [cytochalasin D], in the test with PC-3 cells (cell line not given), the “binding of cells to the substrate” value was “did not affect binding of cells to the substrate” and the “spreading on various substrates” value is “prevented their spreading”. Moreover, the “cells prevented from spreading” value in the test with A549 cells [1] (0.5 μM, collagen I coated substrate, 3 hours) stood at 80%. Further, the “adhesion to the substrate (number of cells that remain attached)” value in the test on A549 cells [1] (3 hour incubation) was “no effect”. Besides, in the test on A549 cells [2] (0.5 μM, movement measured at 18 hours after plating), the “cells permitted to move” value is listed as 70%.
As to `O=c1c(-c2ccc(O)cc2)coc2cc(O)cc(O)c12` [genistein], the “inhibition of cell spreading” value with A549 cells [1] is reported as “ineffective”. In addition, in the test on A549 cells [2], the “inhibition of cell movement (motility)” value is on record as “ineffective”.
`CC(=O)O[C@H]1C(=O)[C@@]2(C)[C@H]([C@H](OC(=O)c3ccccc3)[C@]3(O)C[C@H](OC(=O)[C@H](O)[C@@H](NC(=O)c4ccccc4)c4ccccc4)C(C)=C1C3(C)C)[C@]1(OC(C)=O)CO[C@@H]1C[C@@H]2O` [paclitaxel]: the mitochondrial potential entry is “minimal” in the test on SNB-19 cells (10 nM paclitaxel, 26 h) and “did not show a sharp decrease” with L-929 cells (L-929 cells, any of the concentrations tested (0-50 μM)). In addition, the “concentration at which area, brightness, fragmentation of the nucleus and actin polymerization reached a maximum value” with SNB-19 cells (26 h) was found to be 10 nM. The “all the parameters measured at increasing concentrations” value in the test with SNB-19 cells (>10 nM paclitaxel) is on record as “approached control levels”. In the test with L-929 cells (L-929 cells, 26 h), the “concentration of maximal response in many parameters” value amounted to 5 µM. Further, in the test on L-929 cells (L-929 cells, each parameter measured), the “sensitivity to low concentrations compared with SNB-19 cells” value is listed as “less sensitive”. In the test with L-929 cells (L-929 cells, increasing amounts of paclitaxel), the nuclear morphology entry is “caused nuclei to enlarge and fragment”. Also, in the test on L-929 cells (L-929 vs SNB-19), the “dose of maximal response, L-929 relative to SNB-19 cells” value is on record as 500 fold.
Regarding Calphostin C, the “inhibition of cell spreading” value with A549 cells [1] was “equally effective at inhibiting cell spreading and movement”. Further, in the test on A549 cells [2], the “inhibition of cell movement (motility)” value is “equally effective at inhibiting cell spreading and movement”.
In the case of “IL-1RA: an antagonist to the receptor for IL-1”, the “inhibition of translocation induced by IL-1α” value in test [3] is on record as “progressively inhibiting the translocation”.
For the compound “collagen I: matrix protein used as substrate coating”, the “time at which cell spreading was achieved” value in the test with PC-3 cells (PC-3 cells on a defined collagen I matrix) fell in the range of 2 to 3 h. Besides, the “stimulation of spreading by matrix protein” value (shortened to “stimulation of spreading”) in the test with A549 cells [1] is “maximally stimulated both movement and spreading”. Further, the “completeness of cell spreading on matrix protein” value (from here on “completeness of cell spreading”) with A549 cells [1] (3 hours) is given as “complete by 3 hours”. Further, in the test with A549 cells [2], the “stimulation of movement by matrix protein” value (shortened to “stimulation of movement”) is “maximally stimulated both movement and spreading”.
With fibronectin, the “stimulation of spreading” value in the test with A549 cells [1] is listed as “maximally stimulated spreading”. Further, the “completeness of cell spreading” value in the test on A549 cells [1] (3 hours) is reported as “incomplete”. Moreover, in the test on A549 cells [2], the “stimulation of movement” value is given as “minimally stimulated movement”.
For the compound laminin, the “stimulation of spreading” value in the test on A549 cells [1] is reported as “minimally stimulating spreading”. For the same compound, the “completeness of cell spreading” value with A549 cells [1] (3 hours) is recorded as “complete by 3 hours”. Moreover, in the test with A549 cells [2], the “stimulation of movement” value is recorded as “maximally stimulated movement”.
